Structures can show the parent of a compound that is named as a salt.

What is called inhibition is the change of the read-out against control, counted positive when it falls. High values mean a strong effect, low ones a weak effect.

In one assay the test system is human PMNs. The assay is described as follows: IL-8 induced human PMN chemotaxis assay. It is filed as cell-based. Conditions: compounds marked * tested at c = 10^−7; human PMNs chemotaxis induced by IL-8 (100 ng/mL).
With `CNS(=O)(=O)C(C)c1ccc(CC(C)C)cc1` (racemic) [Compound 43, (±)-1-(4-isobutylphenyl)ethane-N-methyl sulfonamide], 0.1 µM produced 36 ± 15% inhibition.

Take `CS(=O)(=O)Nc1ccc(/C=C/S(N)(=O)=O)cc1` [Compound 17, E-2-[4-(methanesulfonylamino)phenyl] ethenesulfonamide]: at 0.1 µM the inhibition was 41 ± 17%.

Compound `CNS(=O)(=O)/C=C/c1ccc(CC(C)C)cc1` [Compound 22, E-2-(4-isobutylphenyl)ethene-N-methyl sulfonamide] registered an inhibition at 0.1 µM of 41 ± 9%.

A further assay has as its system human PMNs. The assay is described as follows: IL-8 induced human PMN chemotaxis assay. It is filed as cell-based. The settings on record: c = 10^−8 M; human PMNs chemotaxis induced by IL-8 (100 ng/mL). As for the experimental part:
The compounds of formula (I) were evaluated in vitro for their ability to inhibit chemotaxis of polymorphonucleate leukocytes (hereinafter referred to as PMNs) and monocytes induced by the fractions of IL-8 and GRO-α. For this purpose, in order to isolate the PMNs from heparinized human blood, taken from healthy adult volunteers, mononucleates were removed by means of sedimentation on dextran (according to the procedure disclosed by W. J. Ming et al, J. Immunol., 138, 1469, 1987) and red blood cells by a hypotonic solution. The cell vitality was calculated by exclusion with Trypan blue, whilst the ratio of the circulating polymorphonucleates was estimated on the cytocentrifugate after staining with Diff Quick.
Human recombinant IL-8 (Pepro Tech) was used as stimulating agents in the chemotaxis experiments, giving practically identical results: the lyophilized protein was dissolved in a volume of HBSS containing 0.2% bovin serum albumin (BSA) so thus to obtain a stock solution having a concentration of 10^−5 M to be diluted in HBSS to a concentration of 10^−9 M, for the chemotaxis assays.
During the chemotaxis assay (according to W. Falket et al., J. Immunol. Methods, 33, 239, 1980) PVP-free filters with a porosity of 5 μm and microchambers suitable for replication were used.
The compounds of formula (I) were evaluated at a concentration ranging between 10^−6 and 10^−10 M; for this purpose they were added, at the same concentration, both to the […] of the microchamber. Evaluation of the ability of the compounds of the invention of formula I to inhibit IL-8-induced chemotaxis of human monocytes was carried out according to the method disclosed by Van Damme J. et al. (Eur. J. Immunol., 19, 2367, 1989).
Biological results of some representative compounds in the IL-8 induced PMN chemotaxis test are reported in table II (inhibition data, C=10^−8 M).
As to `CC(c1cccc(C(=O)c2ccccc2)c1)S(=O)(=O)O` (racemic) [Compound 8, sodium salt], the inhibition at 0.01 µM amounted to 65 ± 4%. The same measure, in the same setting: as for `CC(=O)c1ccc(CS(N)(=O)=O)n1C` [Compound 31, (1-methyl-5-acetylpyrrolyl)-1-methanesulfonamide], the figure is 39 ± 4%; as for `CC(C)Cc1ccc(/C=C/S(=O)(=O)O)cc1` [Compound 10, E-2-(4-isobutylphenyl)ethenesulfonic acid sodium salt], 45 ± 4%. Same read-out and setting: as for `CC(C)Cc1ccc(/C=C/S(=O)(=O)NCCCN(C)C)cc1` [Compound 18, E-2-(4-isobutylphenyl)ethene(N,N-dimethylaminopropyl) sulfonamide], the figure is 40 ± 1%. Still for that read-out and setting: to `CC(C)Cc1ccc([C@@H](C)S(=O)(=O)O)cc1` [Compound 1, (−)-1-(4-isobutylphenyl) ethanesulfonic acid sodium salt] belongs 55 ± 7%. With `CN(C)CCCNS(=O)(=O)/C=C/c1ccc(NS(C)(=O)=O)cc1` [Compound 21, E-2-[4-(methanesulfonylamino)phenyl] ethene-(N,N-dimethylaminopropyl) sulfonamide], at 0.01 µM the inhibition was 31 ± 6%. With `CC(=O)c1ccc(CS(=O)(=O)O)n1C` [Compound 7, (1-methyl-5-acetylpyrrolyl)-1-methanesulfonic acid sodium salt], the inhibition at 0.01 µM amounted to 35 ± 2%.

In the case of `CN(C)CCCNS(=O)(=O)/C=C/c1ccc(OS(=O)(=O)C(F)(F)F)cc1` [Compound 20, E-2-[4-(trifluoromethanesulfonyloxy)phenyl]ethene-(N,N-dimethylaminopropyl)sulfonamide], at 0.01 µM the inhibition was 60 ± 1%.

Compound `CC(C)Cc1ccc(/C=C/S(N)(=O)=O)cc1` [Compound 14, E-2-(4-isobutylphenyl) ethenesulfonamide] showed an inhibition at 0.01 µM of 41 ± 17%. Same read-out and setting: as for `NS(=O)(=O)/C=C/c1cccc(C(=O)c2ccccc2)c1` [Compound 15, E-2-(3-benzoylphenyl) ethenesulfonamide], the figure is 66 ± 10%. Still for that read-out and setting: as for `CC(=O)NS(=O)(=O)C(C)c1ccc(CC(C)C)cc1` (racemic) [Compound 47, (±)-1-(4-isobutylphenyl)ethane-N-acetyl sulfonamide], the figure is 40 ± 17%; as for `CC(C)Cc1ccc([C@H](C)S(=O)(=O)O)cc1` [Compound 2, (+)-1-(4-isobutylphenyl) ethanesulfonic acid sodium salt], 35 ± 7%. Still for that read-out and setting: to `C/C(=C\S(N)(=O)=O)c1ccc(CC(C)C)cc1` [Compound 50, E-2-(4-isobutylphenyl)-2-methyl-ethenesulfonamide] belongs 32 ± 1%. `CC(c1cccc(C(=O)c2ccccc2)c1)S(=O)(=O)NCCCN(C)C` (racemic) [Compound 36, (±)-1-(3-benzoylphenyl)ethane-N-(N,N-dimethylaminopropyl) sulfonamide] displayed an inhibition at 0.01 µM of 49 ± 14%.

`CC(C)C(=O)c1ccc(CS(N)(=O)=O)n1C` [Compound 30, (1-methyl-5-isobutirrylpyrrolyl)-1-methanesulfonamide] showed an inhibition at 0.01 µM of 50 ± 1%.
